Tested on: Giardia lamblia trophozoites (strain ATCC 30957) gene expression
Assay: Gene expression in trophozoites by RT-qPCR
Type: cell-based
Details: IC50 of each compound, 48 h
Protocol: To determine the alterations in the parasite’s metabolism and cellular processes induced by the compounds, the expression levels of various genes encoding metabolic, structural, and oxidative stress response proteins were evaluated. G. lamblia strain ATCC 30957 was grown by following previously established culture parameters.
The culture tube was incubated on ice for 15 min and then centrifuged at 2000 rpm for 6 min to concentrate the cell pellet. Cell counting was performed using the trypan blue method. A 500 µL volume of Trizol ® was added, and it was gently homogenized; then, 60 µL of chloroform was added, and it was homogenized for 10 s with a vortex and incubated on ice for 3 min. Afterward, it was centrifuged at 12,000 rpm for 10 min, the aqueous phase was transferred to a new tube, 200 µL of isopropanol was added, and it was incubated for 3 h on ice. The sample was then centrifuged for 10 min at 12,000 rpm, and the supernatant was discarded. A 600 µL volume of ethanol (70%) was added, homogenized, and centrifuged. In the end, the supernatant was removed, and the sample was centrifuged again to dry the excess alcohol. The pellet was dried. Finally, it was resuspended in 25 µL of sterile MilliQ water. The concentration and purity of the extracted RNA were determined using the NanoDrop® Spectrophotometer ND-1000 (NanoDrop Technologies, Wilmington, DE, USA). […] RNA purity and integrity were confirmed using 0.8% (w/v) agarose gels under denaturing conditions.
The synthesis of cDNA was carried out with […] of purified RNA, and 1 U of […] was added (Thermo Thermo Fisher Scientific, Waltham, MA, USA). First-strand cDNA synthesis was carried out using 1 μg of DNase-treated RNA, combined with a 10 mM dNTP mix, oligo(dT)18 primer, and RevertAid reverse transcriptase (Thermo Scientific) in a final reaction volume of 20 μL. The reaction mixture was incubated at 42 °C for 60 min, followed by heat inactivation at 70 °C for 10 min. The synthesized cDNA was stored at −20 °C until further use. The level of purity and concentration of the cDNA were determined using the NanoDrop® Spectrophotometer ND-1000 (NanoDrop Technologies, Wilmington, DE, USA).
Specific oligonucleotides were designed to determine the expression levels of the gene’s phosphofructokinase, pyruvate kinase, glucose-6-phosphate dehydrogenase::6-phosphogluconolactonase, 6-phosphogluconate dehydrogenase, and transketolase. The design was based on gene sequences available in the National Center for Biotechnology Information (NCBI) database, adhering to the following criteria: an oligonucleotide length of 18–20 bp, a melting temperature (Tm) of 61 °C, a GC content of approximately 40%, and an amplicon size between 80 and 200 bp (Table 4). The oligonucleotides were synthesized by the Sequencing and Synthesis Unit of the Institute of Biotechnology, UNAM.
Additionally, previously reported primers that were used for the gene expression analysis of G. lamblia were also obtained (Table 4). These primers target genes encoding surface structural protein, giardin, actin, pyruvate:ferredoxin oxidoreductase, pyruvate phosphate dikinase, NADH oxidase, triose phosphate isomerase, glyceraldehyde-3-phosphate dehydrogenase, and Aldolase.
Amplification was performed using a StepOne™ Real-Time PCR System and the Fast SYBR® Green Master Mix kit (Applied Biosystems, Foster City, CA, USA) under the following conditions: an initial denaturation at 95 °C for 30 s, followed by 40 cycles of 95 °C for 3 s and 60 °C for 30 s. The melt curve analysis was conducted post-amplification by gradually increasing the temperature from 60 °C to 95 °C. […] Normalization was performed using the geometric mean of cycle threshold (Ct) values, and the relative expression levels of the target genes were calculated using the 2^−ΔΔCt method. Each reaction was performed in five replicates for all analyzed genes and strains. Results are presented as mean values ± standard deviation (SD).

In the case of `CCCCC(=O)Nc1ncc([N+](=O)[O-])s1` [FLP-2, N-(5-Nitro-1,3-thiazol-2-yl)pentanamide], the “6PGDH gene expression vs control” value is reported as “differential overexpression”, the “ACT (actin) gene expression, decrease vs control” value is reported as 10 times and the “G6PD::6PGL gene expression vs control” value is reported as 117.4 fold change. For the same compound, the “GAPDH gene expression vs control” value was 18.3 fold change, the “GIA (giardin) gene expression, increase vs control” value was 20.1 times and the “NADHox gene expression, increase vs control” value was “lower”. The “PFK gene expression vs control” value was “reduction”, the “PFOR gene expression vs control” value was 16 fold change and the “PPDK gene expression vs control” value was 21.8 fold change. For the same compound, the “TKT gene expression, increase vs control” value was 45.1 times and the “VSP gene expression, increase vs control” value was 47.8 times.
